Source: patent publication US11897862B2 (Gilead Sciences, Inc., priority 2022, dated 2024)

Assays:
IKZF2 = IKZF2 (Homo sapiens, UniProt Q96SW2+Q9UKS7); assay: HEK293 HiBiT in vitro degradation of IKZF2; format: cell-based; set-up: expressed in transfected cells; details: for Dmax: HEK293, HEK293 HiBiT; for Dmax / IKZF2 Dmax: maximum degradation at the highest concentration tested; for DC50 / IKZF2 Dmax: HEK293 HiBiT; for DC50: 18-24 hr incubation, normalized to DMSO control, read-out: IKZF2 EC50
Experimental: (§1) In vitro degradation of IKZF1, IKZF2, and SALL4 was measured using HiBiT protein tagging and detection technology (Promega).
(§2) HiBit technology was used to develop the quantitative assays to measure the cellular IKZFs level by tagging an 11 amino acid HiBit peptides […] to the protein of interest. Reporter plasmids were generated by fusing a linker sequence ([…]) followed by the HiBit tag at the C-terminus of IKZF1, IKZF2, and SALL4. The fusion fragments were subsequently cloned into pcDNA5 pcDNA™5/FRT/TO plasmids (Thermo Fisher, cat #V652020) downstream of the tetracycline operator. The resulting plasmids were co-transfected with pOG44 Flp-Recombinase Expression Vector (Thermo Fisher, cat #V600520) into Flp-In™ T-REx HEK293 line (Thermo Fisher, cat #R78077) and a stable cell pool was selected by adding 100 µg/ml of Hygromycin (Thermo Fisher, cat #10687010). The reporter cell enabled Tet-On inducible reporter expression from a single copy of the integrated gene.
(§3) On Day 1, Cells were grown to ˜80% confluency in tissue culture medium (DMEM Glutamax (Gibco10569), 10% Tet free FBS (Takara 631106), and PenStrep Glutamin (Gibco 10378)) in tissue culture flasks. Doxycycline was then added to a final concentration of […] to induce reporter expression at 37° C. overnight.
(§4) On Day 2, 125 nL of serially-diluted solution of testing compounds were dispensed into 384-well white solid assay plates via ECHO acoustic liquid handler. Cells were lifted by 0.25% Trypsin (Gibco 25200) then pelleted by centrifugation (Beckman Avanti J-E) at 500×g for 5 min. Cell pellets were resuspended in TC medium at the concentration of 3e5/mL and 25 μL of cell suspension were added into each well of compound-spotted plates. The plates were returned to a 37° C. incubator overnight (18-24 hr).
(§5) On Day 3, assay plates were removed from the tissue culture incubator and 25 μL of Nano-Glo lytic detection system (Promega, cat #N3030) was added to each well. Plates were incubated at r.t. for 3 min with shaking, and luminescence was read using an Envision reader (Perkin Elmer).
(§6) To assess the IKZF1, IKZF2, and SALL4 degrader potential of exemplified compounds of this disclosure and certain Reference Compounds EC50 and Dmax values were determined for the compounds of Examples 1 to 383 and Reference Compounds A-1, B-1, B-2, B-3, B-4, and C-1 in the HiBiT assays. Asterisks (*) indicate examples for which the data shown represents an average of n≥3.

IKZF1 = target: T1, IKZF1 (Homo sapiens, UniProt Q13422+Q96SW2); assay: HEK293 HiBiT in vitro degradation of IKZF1; format: cell-based; details: for DC50 / IKZF1 Dmax: HEK293 HiBiT; for DC50: 18-24 hr incubation, normalized to DMSO control, read-out: IKZF1 EC50; for Dmax: HEK293, HEK293 HiBiT; for Dmax / IKZF1 Dmax: maximum degradation at the highest concentration tested
T1 construct: expressed in transfected cells
Experimental: as §1, §2, §3, §4, §5, §6

T1 sequence (Q13422 whole entry): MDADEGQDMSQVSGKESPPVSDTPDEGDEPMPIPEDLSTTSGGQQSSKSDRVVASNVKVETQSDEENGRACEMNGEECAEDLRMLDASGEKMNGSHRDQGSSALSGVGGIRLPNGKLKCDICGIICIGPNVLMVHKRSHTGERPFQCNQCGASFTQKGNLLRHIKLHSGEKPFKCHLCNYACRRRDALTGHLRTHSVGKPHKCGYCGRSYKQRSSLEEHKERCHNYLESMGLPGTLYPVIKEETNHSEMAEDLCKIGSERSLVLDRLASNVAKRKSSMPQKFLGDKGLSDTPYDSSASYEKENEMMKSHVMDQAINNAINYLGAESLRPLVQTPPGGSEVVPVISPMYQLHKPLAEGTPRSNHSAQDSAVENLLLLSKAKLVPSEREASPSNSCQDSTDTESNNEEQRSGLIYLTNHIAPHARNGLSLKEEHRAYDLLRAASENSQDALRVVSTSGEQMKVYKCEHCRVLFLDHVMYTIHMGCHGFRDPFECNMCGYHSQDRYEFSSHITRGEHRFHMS
T1 sequence (Q96SW2 whole entry): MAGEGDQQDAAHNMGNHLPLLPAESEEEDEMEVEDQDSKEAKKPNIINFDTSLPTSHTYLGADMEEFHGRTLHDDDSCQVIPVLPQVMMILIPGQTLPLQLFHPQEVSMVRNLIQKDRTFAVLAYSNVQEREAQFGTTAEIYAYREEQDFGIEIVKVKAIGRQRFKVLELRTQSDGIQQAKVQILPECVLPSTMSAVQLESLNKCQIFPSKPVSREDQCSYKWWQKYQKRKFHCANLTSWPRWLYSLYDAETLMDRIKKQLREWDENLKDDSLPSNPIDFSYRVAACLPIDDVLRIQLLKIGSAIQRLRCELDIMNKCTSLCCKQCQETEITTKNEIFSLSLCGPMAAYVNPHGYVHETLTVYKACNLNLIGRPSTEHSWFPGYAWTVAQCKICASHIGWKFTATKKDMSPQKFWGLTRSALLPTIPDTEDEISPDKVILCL
T1 sequence (Q16531 whole entry partner): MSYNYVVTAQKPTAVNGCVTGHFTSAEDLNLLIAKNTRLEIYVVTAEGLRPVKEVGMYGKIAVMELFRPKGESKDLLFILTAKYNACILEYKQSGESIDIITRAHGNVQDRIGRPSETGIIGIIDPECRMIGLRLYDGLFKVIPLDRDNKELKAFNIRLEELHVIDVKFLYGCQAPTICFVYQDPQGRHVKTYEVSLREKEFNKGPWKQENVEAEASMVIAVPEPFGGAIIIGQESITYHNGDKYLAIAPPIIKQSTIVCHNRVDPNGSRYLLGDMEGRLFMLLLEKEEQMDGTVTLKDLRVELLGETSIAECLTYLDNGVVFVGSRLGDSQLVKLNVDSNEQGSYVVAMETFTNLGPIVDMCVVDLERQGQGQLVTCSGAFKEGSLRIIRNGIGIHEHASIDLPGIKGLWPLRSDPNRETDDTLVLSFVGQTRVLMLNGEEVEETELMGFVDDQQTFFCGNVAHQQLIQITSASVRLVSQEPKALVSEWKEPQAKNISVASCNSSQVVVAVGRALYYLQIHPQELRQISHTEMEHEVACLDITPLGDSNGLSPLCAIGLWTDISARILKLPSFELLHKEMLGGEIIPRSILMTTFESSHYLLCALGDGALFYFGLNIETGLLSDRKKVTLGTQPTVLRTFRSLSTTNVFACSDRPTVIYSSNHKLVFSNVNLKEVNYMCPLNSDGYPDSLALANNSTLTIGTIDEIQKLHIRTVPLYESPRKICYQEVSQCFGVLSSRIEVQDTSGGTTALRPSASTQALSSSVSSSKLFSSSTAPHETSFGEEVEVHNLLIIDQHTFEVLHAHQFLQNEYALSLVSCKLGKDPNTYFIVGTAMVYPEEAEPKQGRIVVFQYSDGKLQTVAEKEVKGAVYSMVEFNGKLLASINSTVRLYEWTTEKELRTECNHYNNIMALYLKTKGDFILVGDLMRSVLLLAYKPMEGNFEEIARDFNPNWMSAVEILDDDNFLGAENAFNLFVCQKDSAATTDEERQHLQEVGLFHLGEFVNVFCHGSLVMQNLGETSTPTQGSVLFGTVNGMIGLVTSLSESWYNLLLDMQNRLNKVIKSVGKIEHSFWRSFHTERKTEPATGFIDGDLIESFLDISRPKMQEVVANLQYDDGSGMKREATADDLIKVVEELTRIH
Sequence of IKZF2 (Q9UKS7 1-500 isoform Q9UKS7-2): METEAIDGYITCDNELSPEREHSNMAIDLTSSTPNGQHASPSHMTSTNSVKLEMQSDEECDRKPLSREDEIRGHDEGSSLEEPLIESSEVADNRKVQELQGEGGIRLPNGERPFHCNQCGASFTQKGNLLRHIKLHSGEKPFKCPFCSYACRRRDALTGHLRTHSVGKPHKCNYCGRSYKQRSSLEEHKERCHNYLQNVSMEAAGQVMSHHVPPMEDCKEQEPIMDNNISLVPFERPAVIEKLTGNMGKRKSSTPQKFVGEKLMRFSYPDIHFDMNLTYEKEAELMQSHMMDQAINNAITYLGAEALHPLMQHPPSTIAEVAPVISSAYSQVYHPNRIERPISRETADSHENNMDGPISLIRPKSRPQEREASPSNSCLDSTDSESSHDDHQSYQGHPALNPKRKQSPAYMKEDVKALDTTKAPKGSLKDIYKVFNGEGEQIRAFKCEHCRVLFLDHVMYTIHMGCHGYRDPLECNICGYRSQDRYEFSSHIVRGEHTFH
Sequence of IKZF2 (Q96SW2 whole entry): as the sequence (Q96SW2 whole entry) above
Sequence of IKZF2 (Q16531 whole entry partner): as the sequence (Q16531 whole entry partner) above

SMILES	Dmax (IKZF2) [%]	DC50 (IKZF2) [µM]	DC50 (IKZF1) [µM]	Dmax (IKZF1) [%]	IKZF2 Dmax (IKZF2) [%]	IKZF1 Dmax (IKZF1) [%]
O=C1CCC(N2Cc3cc(C[C@H]4CCCC[C@@H]4N[C@@H]4CCC(F)(F)C4)ccc3C2=O)C(=O)N1 (relative stereo) [Example 302, 3-(5-(((1R,2S)-rel-2-(((R)-3,3-difluorocyclopentyl)amino)cyclohexyl)methyl)-1-oxoisoindolin-2-yl)piperidine-2,6-dione]	89	0.015	> 1			
C[C@@H]1CCCC[C@H]1N[C@H]1CCCC[C@@H]1Cc1ccc2c(c1)CN(C1CCC(=O)NC1=O)C2=O (relative stereo) [Example 303]	82	0.086	> 1			
O=C1CCC(N2Cc3cc(C[C@H]4CCC[C@H](O)[C@@H]4NC4CCCCC4)ccc3C2=O)C(=O)N1 (relative stereo) [Example 310, 3-(5-(((1R,2R,3S)-rel-2-(cyclohexylamino)-3-hydroxycyclohexyl)methyl)-1-oxoisoindolin-2-yl)piperidine-2,6-dione]	90	0.027	> 0.5			
O=C1CCC(N2Cc3cc(C[C@H]4CCCC[C@@H]4NCc4ccccc4)ccc3C2=O)C(=O)N1 (single isomer, unassigned) [Example 25]		0.023	> 1			
[2H]c1c([2H])c([2H])c(CN[C@H]2CCCC[C@@H]2Cc2ccc3c(c2)CN(C2CCC(=O)NC2=O)C3=O)c([2H])c1[2H] (single isomer, unassigned) [Example 25]	87					
O=C1CCC(N2Cc3cc(C[C@H]4CCCC[C@@H]4NCc4ccccc4)ccc3C2=O)C(=O)N1 (single isomer, unassigned) [Example 97]		0.036	0.085			
[2H]C([2H])(N[C@H]1CCCC[C@@H]1Cc1ccc2c(c1)CN(C1CCC(=O)NC1=O)C2=O)c1ccccc1 (single isomer, unassigned) [Example 97]	92			30		
O=C1CCC(N2Cc3cc(C[C@H]4CCCC[C@@H]4NCc4ccccc4)ccc3C2=O)C(=O)N1 (single isomer, unassigned) [Example 98]		0.041	> 1			
[2H]c1c([2H])c([2H])c(C([2H])([2H])N[C@H]2CCCC[C@@H]2Cc2ccc3c(c2)CN(C2CCC(=O)NC2=O)C3=O)c([2H])c1[2H] (single isomer, unassigned) [Example 98]	87					
O=C1CCC(N2Cc3cc(C[C@H]4CCCC[C@@H]4NCc4ccccc4)ccc3C2=O)C(=O)N1 (single isomer, unassigned) [Example 120]		0.033	0.1			
[2H]c1c([2H])c([2H])c(C([2H])N[C@H]2CCCC[C@@H]2Cc2ccc3c(c2)CN(C2CCC(=O)NC2=O)C3=O)c([2H])c1[2H] (single isomer, unassigned) [Example 120]	90			29		
O=C1CCC(N2Cc3cc(C[C@H]4CCCC[C@@H]4NC4CCC(C(F)(F)F)CC4)ccc3C2=O)C(=O)N1 (single isomer, unassigned) [Example 121]	97	0.003	0.068	26		
O=C1CCC(N2Cc3cc(C[C@H]4CCCC[C@@H]4NC4CCC(OC(F)(F)F)CC4)ccc3C2=O)C(=O)N1 (single isomer, unassigned) [Example 146]		0.002	0.168		95	34
O=C1CCC(N2Cc3cc(C[C@H]4CCC[C@H](O)[C@@H]4NC4CCC(F)(F)CC4)ccc3C2=O)C(=O)N1 (single isomer, unassigned) [Example 151]	87	0.022	> 1			
CC(C)OC1CCC(N[C@H]2CCCC[C@@H]2Cc2ccc3c(c2)CN(C2CCC(=O)NC2=O)C3=O)CC1 (single isomer, unassigned) [Example 167]	97	0.002	0.077	36		
CC(C)OC1CCC(N[C@H]2CCCC[C@@H]2Cc2ccc3c(c2)CN(C2CCC(=O)NC2=O)C3=O)CC1 (single isomer, unassigned) [Example 168]		0.003	0.246		97	39
CC(N[C@H]1CCCC[C@@H]1Cc1ccc2c(c1)CN(C1CCC(=O)NC1=O)C2=O)C1(F)CC1 (single isomer, unassigned) [Example 224]	96	0.002	> 1			
CC(N[C@H]1CCCC[C@@H]1Cc1ccc2c(c1)CN(C1CCC(=O)NC1=O)C2=O)C1(F)CC1 (single isomer, unassigned) [Example 225]		0.011	> 0.5		94	
CC(N[C@H]1CCCC[C@@H]1Cc1ccc2c(c1)CN(C1CCC(=O)NC1=O)C2=O)C(C)(C)F (single isomer, unassigned) [Example 226]	93	0.014	0.017	84		
CC(N[C@H]1CCCC[C@@H]1Cc1ccc2c(c1)CN(C1CCC(=O)NC1=O)C2=O)C(C)(C)F (single isomer, unassigned) [Example 227]		0.02	> 0.5		86	
CC(CC1CC1)N[C@H]1CCCC[C@@H]1Cc1ccc2c(c1)CN(C1CCC(=O)NC1=O)C2=O (single isomer, unassigned) [Example 230]	96	0.003	0.066	30		
CC(CC1CC1)N[C@H]1CCCC[C@@H]1Cc1ccc2c(c1)CN(C1CCC(=O)NC1=O)C2=O (single isomer, unassigned) [Example 231]		0.003	> 1		96	
CCC(N[C@H]1CCCC[C@@H]1Cc1ccc2c(c1)CN(C1CCC(=O)NC1=O)C2=O)C1CC1 (single isomer, unassigned) [Example 232]	93	0.021	> 1			
CCC(N[C@H]1CCCC[C@@H]1Cc1ccc2c(c1)CN(C1CCC(=O)NC1=O)C2=O)C1CC1 (single isomer, unassigned) [Example 233]		0.003	> 1		97	
CC(N[C@H]1CCCO[C@@H]1Cc1ccc2c(c1F)CN(C1CCC(=O)NC1=O)C2=O)C1CCC1 (single isomer, unassigned) [Example 248]		0.021	> 1		92	
CC(CC(F)(F)F)N[C@H]1CCCC[C@@H]1Cc1ccc2c(c1)CN(C1CCC(=O)NC1=O)C2=O (single isomer, unassigned) [Example 249]	97	0.004	> 1			
CC(N[C@H]1CCCC[C@@H]1Cc1ccc2c(c1)CN(C1CCC(=O)NC1=O)C2=O)C1CCCO1 (single isomer, unassigned) [Example 253]	96	0.009	> 1			
CC(N[C@H]1CCCC[C@@H]1Cc1ccc2c(c1)CN(C1CCC(=O)NC1=O)C2=O)C1CCCO1 (single isomer, unassigned) [Example 254]		0.033	> 1		84	
CC(N[C@H]1CCCC[C@@H]1Cc1ccc2c(c1)CN(C1CCC(=O)NC1=O)C2=O)C1(C#N)CC1 (single isomer, unassigned) [Example 255]		0.032	> 1		87	
